Measurements taken from patent publication US12064445B2, “Cytarabine conjugates for cancer therapy” (Biosight Ltd., priority 2015, dated 2024).
Where two headings read alike, the source gives them in different places.

Key:
[1] = test system: HL-60 (Human promyelocytic leukemia); conditions: Qin et al., Clin. Cancer Res. 2007, read-out: Cytarabine in literature (IC50); cited from earlier work
[2] = test system: CCRF-CEM (Human acute lymphoblastic leukemia T lympoblastoid line); conditions: Manfredini et al., Bioorg. Med. Chem. 2000, read-out: Cytarabine in literature (IC50); cited from earlier work
[3] = test system: P388.D1 (Mouse lymphoid macrophage); assay: MTT assay, IC50 in tumor cell lines; assay type: cell-based; conditions: P388D1, P388.D1, 72 hr
Method: (§1) The effect of Astarabine® on different cell lines was evaluated. Briefly, various cell lines were obtained from ATCC or ECACC. Hematological cells were grown in RPMI medium containing 10-20% FBS and 1% glutamine. Solid tumor cells were grown in DMEM medium containing 10-20% FBS and 1% glutamine. Cells were seeded into 96-well plates, 50,000 cells/ml, 0.2 ml per well. Test substances were diluted in saline or PBS and added in final concentrations of 0.1 nM to 10 μM, in a volume of 20 μl. The study was conducted in triplicates, PBS was used as control. Plates were incubated for 72 hr at 37° C., 5% CO2. At the end of the exposure period, a MTT assay using the MTT reagent [3-(4,5-dimethylthiazol-2-yl)-2,5-diphenyltetrazolium bromide] was performed. MTT was added to each well at a concentration of 5 mg/ml in a volume of 0.02 ml. Plates were incubated at 37° C. for 3 h. The plates were centrifuged at 3500 rpm for 5 minutes and the supernatant was aspired. The pellets which contained MTT crystals were each dissolved in 0.2 ml DMSO. Absorbance was determined using ELISA reader at a wavelength of 570 nm.

[4] = test system: Molt-4 (Human acute lymphoblastic leukemia); assay: MTT assay, IC50 in tumor cell lines; assay type: cell-based; conditions: Molt-4, 72 hr
Method: as §1

[5] = test system: NCIH727 (Human lung non small cell carcinoma); assay: MTT assay, IC50 in tumor cell lines; assay type: cell-based; conditions: NCI-H727, NCIH727, 72 hr
Method: as §1

[6] = test system: MEG 01 (Human chronic myelogenous leukemia); assay: MTT assay, IC50 in tumor cell lines; assay type: cell-based; conditions: MEG 01, 72 hr
Method: as §1

[7] = test system: SU DHL-5 (Human B-cell non Hodgkin's lymphoma); assay: MTT assay, IC50 in tumor cell lines; assay type: cell-based; conditions: SU DHL-5, 72 hr
Method: as §1

[8] = test system: K562 (Human chronic myelogenous leukemia); assay: MTT assay, IC50 in tumor cell lines; assay type: cell-based; conditions: K562, 72 hr
Method: as §1

[9] = test system: THP-1 (Human monocytic leukemia); assay: MTT assay, IC50 in tumor cell lines; assay type: cell-based; conditions: THP-1, 72 hr
Method: as §1

[10] = test system: CCRF-CEM (Human acute lymphoblastic leukemia T lympoblastoid line); assay: MTT assay, IC50 in tumor cell lines; assay type: cell-based; conditions: 72 hr
Method: as §1

[11] = test system: RS 4:11 (Human acute lymphoblastic leukemia); assay: MTT assay, IC50 in tumor cell lines; assay type: cell-based; conditions: RS4-11, RS 4:11, 72 hr
Method: as §1

[12] = test system: HepG2 (Human hepatocellular carcinoma); assay: MTT assay, IC50 in tumor cell lines; assay type: cell-based; conditions: HepG2, 72 hr
Method: as §1

[13] = test system: A2780 (Human ovarian carcinoma); assay: MTT assay, IC50 in tumor cell lines; assay type: cell-based; conditions: A2780, 72 hr
Method: as §1

[14] = test system: CCRF-SB (Human acute lymphoblastic leukemia); assay: MTT assay, IC50 in tumor cell lines; assay type: cell-based; conditions: 72 hr
Method: as §1

[15] = test system: L1210 (Mouse DBA/2 lymphocytic leukemia); assay: MTT assay, IC50 in tumor cell lines; assay type: cell-based; conditions: L1210, 72 hr
Method: as §1

[16] = test system: HL-60 (Human promyelocytic leukemia); assay: MTT assay, IC50 in tumor cell lines; assay type: cell-based; conditions: HL-60, 72 hr
Method: as §1

[17] = test system: SU DHL-1 (Human large cell lymphoma); assay: MTT assay, IC50 in tumor cell lines; assay type: cell-based; conditions: SU DHL-1, 72 hr
Method: as §1

[18] = test system: A2780 (Human ovarian carcinoma); conditions: Ruiz Van Haperen, Cancer Res. 1994, read-out: Cytarabine in literature (IC50); cited from earlier work
CCRF-CEM cells = assay: Human leukemia hollow fiber model transplanted in nude mice (CCRF-CEM); assay type: in vivo; conditions: 1.5 mg/mouse/day, 7 consecutive days
Method: (§2) Next, the efficacy of Astarabine® in vivo was studied on a human leukemia (Molt-4 and CCRF-CEM cells) hollow fiber model transplanted in nude mice. Astarabine® was injected at doses of 6.25 mg/mouse/day and 25 mg/mouse/day intraperitoneally (IP), daily, for 7 consecutive days; cytarabine was injected at a dose of 1.5 mg/mouse/day. Leukemia cell growth was measured using the MTT assay as described in Example 1 herein above.

RPMI8226 (Human myeloma) = assay: MTT assay, IC50 in tumor cell lines; assay type: cell-based; conditions: RPMI-8226, RPMI8226, 72 hr
Method: as §1, with “Test substances were diluted in saline or PBS and added in final concentrations of 0.1 nM to 10 μM, in a volume of 20 μl.” left out

[19] = test system: Molt-4 (Human acute lymphoblastic leukemia); conditions: Ogbomo et al., Neoplasia 2008, read-out: Cytarabine in literature (IC50); cited from earlier work
Molt-4 cells = assay: Human leukemia hollow fiber model transplanted in nude mice (Molt-4); assay type: in vivo; conditions: 1.5 mg/mouse/day, 7 consecutive days
Method: as §2

[20] = test system: CCRF-SB (Human acute lymphoblastic leukemia); conditions: Manfredini et al., Bioorg. Med. Chem. 2000, read-out: Cytarabine in literature (IC50); cited from earlier work
[21] = test system: L1210 (Mouse DBA/2 lymphocytic leukemia); conditions: Breistol et al., Cancer Res. 1999, read-out: Cytarabine in literature (IC50); cited from earlier work
[22] = test system: HepG2 (Human hepatocellular carcinoma); conditions: Grove et al., Cancer Res. 1995, read-out: Cytarabine in literature (IC50); cited from earlier work

Which results are given for `Nc1ccn([C@@H]2O[C@H](CO)[C@@H](O)[C@@H]2O)c(=O)n1` [cytarabine, cytosine arabinoside]?
IC50 [1]: 37 ± 6.1 nM; IC50 [2]: 30 nM; IC50 [3]: 600 to 900 nM; IC50 [4]: 1.1 to 12.3 nM; IC50 [5]: 590 to 770 nM; IC50 [6]: 1200 to 5600 nM; IC50 [7]: 323 nM; IC50 [8]: 46.1 to 381 nM; IC50 [9]: 2300 to 5500 nM; IC50 [10]: 3.1 to 25.2 nM; IC50 [11]: 26.4 nM; IC50 [12]: 980 to 1160 nM; IC50 [13]: 72 to 114 nM; IC50 [14]: 1900 to 3100 nM; IC50 [15]: 12.2 to 16.4 nM; IC50 [16]: 49.6 to 165 nM; IC50 [17]: 124 to 524 nM; IC50 [18]: 14 ± 4 nM; Inhibition of growth of CCRF-CEM cells (CCRF-CEM cells): 73.3%; IC50 (RPMI8226 (Human myeloma)): 9700 to 63000 nM; IC50 [19]: 29 ± 1.8 nM; Inhibition of growth of Molt-4 cells (Molt-4 cells): 81.1%; IC50 [20]: 4200 nM; IC50 [21]: 40 ± 9 nM; IC50 [22]: 185 ± 240 nM
